The values below are quoted from earlier work in patent publication US20260014110A1, “RETINOIC ACID-ALCOHOL AMINE COMPLEX, PREPARATION METHOD AND APPLICATION THEREOF” (NANJING INDETEK LABORATORY CO., LTD., priority 2022, published 2026).

≈ marks a conversion by molar mass, not a printed value. Like-named read-outs stand apart in the source and are kept apart here.

As for `CC1=C(/C=C/C(C)=C/C=C/C(C)=C/C(=O)O)C(C)(C)CCC1` [retinoic acid], the “solubility in water” value by setting is: (Chinese Pharmacopoeia 2020, volume II) “extremely difficult to dissolve in water”; (literature (Ascenso et al. 2011)) 1.06 µM (≈ 0.318 µg/mL).
